Reference: the CheMixHub viscosity set

Assay: xn = mol fraction of the nth substance listed

CCCCCCCCCCC + CCCCCC
viscosity [mPa·s]
Settings | 293.15 K | 298.15 K | 303.15 K | 308.15 K | 313.15 K | 318.15 K | 323.15 K
100 kPa, x2 = 0.1021 | 1.036 | 0.958 | 0.89 | 0.828 | 0.773 | 0.724 | 0.68
100 kPa, x2 = 0.1994 | 0.934 | 0.867 | 0.804 | 0.751 | 0.704 | 0.662 | 0.623
100 kPa, x2 = 0.306 | 0.819 | 0.763 | 0.712 | 0.668 | 0.627 | 0.591 | 0.558
100 kPa, x2 = 0.4014 | 0.731 | 0.684 | 0.64 | 0.602 | 0.567 | 0.535 | 0.507
100 kPa, x2 = 0.4991 | 0.646 | 0.606 | 0.57 | 0.538 | 0.508 | 0.481 | 0.456
100 kPa, x2 = 0.601 | 0.563 | 0.53 | 0.5 | 0.473 | 0.449 | 0.426 | 0.406
100 kPa, x2 = 0.7028 | 0.489 | 0.462 | 0.438 | 0.415 | 0.395 | 0.377 | 0.36
100 kPa, x2 = 0.7989 | 0.424 | 0.402 | 0.383 | 0.365 | 0.348 | 0.333 | 0.319
100 kPa, x2 = 0.9 | 0.364 | 0.347 | 0.331 | 0.315 | 0.302 | 0.292 | 0.28
101.33 kPa, x2 = 0.1036 | – | 0.963 | – | – | – | – | –
101.33 kPa, x2 = 0.1988 | – | 0.876 | – | – | – | – | –
101.33 kPa, x2 = 0.2999 | – | 0.7746 | – | – | – | – | –
101.33 kPa, x2 = 0.4051 | – | 0.6933 | – | – | – | – | –
101.33 kPa, x2 = 0.5076 | – | 0.609 | – | – | – | – | –
101.33 kPa, x2 = 0.606 | – | 0.5391 | – | – | – | – | –
101.33 kPa, x2 = 0.7068 | – | 0.4643 | – | – | – | – | –
101.33 kPa, x2 = 0.8048 | – | 0.4044 | – | – | – | – | –
101.33 kPa, x2 = 0.9022 | – | 0.3552 | – | – | – | – | –

CN1CCC[C@H]1c1cccnc1 + CC(C)=O
viscosity [mPa·s], 101 kPa
Settings | x1 = 0.1173 | x1 = 0.2498 | x1 = 0.378 | x1 = 0.5005 | x1 = 0.6228 | x1 = 0.7485 | x1 = 0.8439
298.15 K | 0.4615 | 0.6975 | 0.9326 | 1.28 | 1.695 | 2.274 | 2.856
308.15 K | 0.4184 | 0.6054 | 0.7994 | 1.075 | 1.397 | 1.818 | 2.248
323.15 K | 0.3526 | 0.4988 | 0.6476 | 0.8411 | 1.065 | 1.364 | 1.619

C=CCO + O
Settings | viscosity [mPa·s]
298.15 K, 101.33 kPa, x1 = 0.04829 | 1.349
298.15 K, 101.33 kPa, x1 = 0.09818 | 1.682
298.15 K, 101.33 kPa, x1 = 0.1362 | 1.789
298.15 K, 101.33 kPa, x1 = 0.146 | 1.846
298.15 K, 101.33 kPa, x1 = 0.2038 | 1.888
298.15 K, 101.33 kPa, x1 = 0.2149 | 1.895
298.15 K, 101.33 kPa, x1 = 0.2178 | 1.887
298.15 K, 101.33 kPa, x1 = 0.2213 | 1.892
298.15 K, 101.33 kPa, x1 = 0.2883 | 1.891
298.15 K, 101.33 kPa, x1 = 0.3655 | 1.796
298.15 K, 101.33 kPa, x1 = 0.4148 | 1.75
298.15 K, 101.33 kPa, x1 = 0.6057 | 1.537
303.15 K, 101 kPa, x1 = 0.1 | 1.415
303.15 K, 101 kPa, x1 = 0.199 | 1.604
303.15 K, 101 kPa, x1 = 0.299 | 1.603
303.15 K, 101 kPa, x1 = 0.4 | 1.531
303.15 K, 101 kPa, x1 = 0.5 | 1.44
303.15 K, 101 kPa, x1 = 0.6 | 1.369
303.15 K, 101 kPa, x1 = 0.696 | 1.297
303.15 K, 101 kPa, x1 = 0.795 | 1.233
303.15 K, 101 kPa, x1 = 0.896 | 1.176
313.15 K, 101 kPa, x1 = 0.1 | 1.082
313.15 K, 101 kPa, x1 = 0.199 | 1.23
313.15 K, 101 kPa, x1 = 0.299 | 1.238
313.15 K, 101 kPa, x1 = 0.4 | 1.202
313.15 K, 101 kPa, x1 = 0.5 | 1.143
313.15 K, 101 kPa, x1 = 0.6 | 1.096
313.15 K, 101 kPa, x1 = 0.696 | 1.045
313.15 K, 101 kPa, x1 = 0.795 | 1.002
313.15 K, 101 kPa, x1 = 0.896 | 0.9616
318.15 K, 101 kPa, x1 = 0.1 | 0.9613
318.15 K, 101 kPa, x1 = 0.199 | 1.09
318.15 K, 101 kPa, x1 = 0.299 | 1.103
318.15 K, 101 kPa, x1 = 0.4 | 1.072
318.15 K, 101 kPa, x1 = 0.5 | 1.031
318.15 K, 101 kPa, x1 = 0.6 | 0.991
318.15 K, 101 kPa, x1 = 0.696 | 0.9463
318.15 K, 101 kPa, x1 = 0.795 | 0.9099
318.15 K, 101 kPa, x1 = 0.896 | 0.876
323.15 K, 101 kPa, x1 = 0.1 | 0.8601
323.15 K, 101 kPa, x1 = 0.199 | 0.9754
323.15 K, 101 kPa, x1 = 0.299 | 0.9907
323.15 K, 101 kPa, x1 = 0.4 | 0.9622
323.15 K, 101 kPa, x1 = 0.5 | 0.9263
323.15 K, 101 kPa, x1 = 0.6 | 0.8973
323.15 K, 101 kPa, x1 = 0.696 | 0.8586
323.15 K, 101 kPa, x1 = 0.795 | 0.8284
323.15 K, 101 kPa, x1 = 0.896 | 0.8008

CN1CCC[C@H]1c1cccnc1 + CC(=O)O
viscosity [mPa·s], 101 kPa
Settings | 298.15 K | 323.15 K
x1 = 0.1169 | 23.04 | 7.777
x1 = 0.1985 | 74.98 | 18.12
x1 = 0.2129 | 93.46 | 20.8
x1 = 0.2369 | 109.9 | 21.63
x1 = 0.2489 | 111.9 | 22.09
x1 = 0.2602 | 110.9 | 21.72
x1 = 0.2952 | 94.15 | 19.47
x1 = 0.3062 | 86.56 | 18.65
x1 = 0.3711 | 56.31 | 13.21
x1 = 0.47 | 24.1 | 7.709
x1 = 0.5888 | 15.2 | 5.208
x1 = 0.7306 | 8.751 | 3.61
x1 = 0.8435 | 7.072 | 3.085

CN1CCC[C@H]1c1cccnc1 + ClC(Cl)C(Cl)Cl
viscosity [mPa·s], 101.33 kPa
Settings | x1 = 0.1547 | x1 = 0.2569 | x1 = 0.3706 | x1 = 0.5146 | x1 = 0.5995 | x1 = 0.6384 | x1 = 0.6803 | x1 = 0.7501 | x1 = 0.868
298.15 K | 2.625 | 3.353 | 4.121 | 4.912 | 5.253 | 5.353 | 5.203 | 5.031 | 4.545
323.15 K | 1.541 | 1.905 | 2.184 | 2.425 | 2.53 | 2.632 | 2.568 | 2.497 | 2.342

CCCC(O)CC (stereo unspecified) + CO
298.15 K, 101.33 kPa
Settings | viscosity [mPa·s]
x2 = 0.1014 | 4.298
x2 = 0.2029 | 3.945
x2 = 0.3111 | 3.363
x2 = 0.4188 | 2.737
x2 = 0.503 | 2.278
x2 = 0.6078 | 1.758
x2 = 0.7072 | 1.383
x2 = 0.7994 | 1.054
x2 = 0.9014 | 0.7655

OCCCl + CCCOC(C)=O
viscosity [mPa·s], 101.33 kPa
Settings | x1 = 0.1017 | x1 = 0.2031 | x1 = 0.3017 | x1 = 0.4061 | x1 = 0.5057 | x1 = 0.5974 | x1 = 0.7006 | x1 = 0.7963 | x1 = 0.9006
298.15 K | 0.593 | 0.658 | 0.736 | 0.852 | 0.989 | 1.155 | 1.43 | 1.805 | 2.302
303.15 K | 0.557 | 0.614 | 0.687 | 0.792 | 0.908 | 1.057 | 1.293 | 1.615 | 2.035
308.15 K | 0.525 | 0.58 | 0.642 | 0.733 | 0.856 | 0.97 | 1.177 | 1.473 | 1.81
